Usually melting point stands for the temperature of the solid-liquid transition.

Turning to `CN1C(=O)CN=C(c2cccc(Cl)c2)c2cc(C(N)(c3ccc(Cl)cc3)c3cncn3C)ccc21` (stereo not drawn), the melting point is 213 °C.
Molecule `CN1C(=O)CSC(c2cccc(Cl)c2)c2cc(C(N)(c3ccc(Cl)cc3)c3cncn3C)ccc21` (stereo not drawn) displayed a melting point of 218 °C.
With `Cn1cncc1C(N)(c1ccc(Cl)cc1)c1ccc2c(c1)C(c1cccc(Cl)c1)=NCc1nnnn1-2` (stereo not drawn) the figure was 218 °C.
For `Cn1cncc1C(c1ccc(Cl)cc1)c1ccc2c(c1)C(c1cccc(Cl)c1)SCC(=O)N2` (stereo not drawn) the value was 187 °C; for `Cn1cncc1C(O)(c1ccc(Cl)cc1)c1ccc2c(c1)C(c1cccc(Cl)c1)SCc1nnnn1-2` (stereo not drawn), 217 °C; for `Cn1cncc1C(c1ccc(Cl)cc1)c1ccc2c(c1)C(c1cccc(Cl)c1)SCc1nnnn1-2` (stereo not drawn), 162 °C.
`Cn1cncc1C(c1ccc(Cl)cc1)c1ccc2c(c1)C(c1cccc(Cl)c1)SCCC(=O)N2` (stereo not drawn) returned a melting point of 199 °C.
With `Cn1cncc1C(O)(c1ccc(Cl)cc1)c1ccc2c(c1)C(c1cccc(Cl)c1)SCC(=O)N2` (stereo not drawn) the figure was 210 °C; with `Cn1cncc1C(O)(c1ccc(Cl)cc1)c1ccc2c(c1)C(c1cccc(Cl)c1)SCC(=O)N2CC1CC1` (stereo not drawn), 245 °C; with `Cn1cncc1C(O)(c1ccc(Cl)cc1)c1ccc2c(c1)C(c1cccc(Cl)c1)=NCC(=O)N2` (stereo not drawn), 200 °C.
With `CN1C(=O)CSC(c2cccc(Cl)c2)c2cc(C(O)(c3ccc(Cl)cc3)c3cncn3C)ccc21` (stereo not drawn) the figure was 186 °C; with `CN1C(=O)CN=C(c2cccc(Cl)c2)c2cc(C(O)(c3ccc(Cl)cc3)c3cncn3C)ccc21` (stereo not drawn), 226 °C.
With `Cn1cncc1C(O)(c1ccc(Cl)cc1)c1ccc2c(c1)C(c1cccc(Cl)c1)=NCc1nnnn1-2` (stereo not drawn) the figure was 240 °C.
With `O=C1CN=C(c2ccccc2)c2cc(C(c3ccc(Cl)cc3)n3ccnc3)ccc2N1` (racemic), the melting point is 144 °C.
With `Cn1cncc1C(O)(c1ccc(Cl)cc1)c1ccc2c(c1)C(c1cccc(Cl)c1)OCC(=O)N2` (stereo not drawn) [Example B1, 5-(3-chlorophenyl)-7-[(4-chlorophenyl)hydroxy(1-methyl-1H-imidazol-5-yl)methyl]-1,5-dihydro-4,1-benzoxazepin-2(3H)-one] the figure was 260 °C; with `CN1C(=O)COC(c2cccc(Cl)c2)c2cc(C(O)(c3ccc(Cl)cc3)c3cncn3C)ccc21` (stereo not drawn) [Example B3, 5-(3-chlorophenyl)-7-[(4-chlorophenyl)hydroxy(1-methyl-1H-imidazol-5-yl)methyl]-1,5-dihydro-1-methyl-4,1-benzoxazepin-2(3H)-one], 160 °C.
With `CN1C(=O)CNC(c2cccc(Cl)c2)c2cc(C(O)(c3ccc(Cl)cc3)c3cncn3C)ccc21` (stereo not drawn) [Example B5, 5-(3-chlorophenyl)-7-[(4-chlorophenyl)hydroxy(1-methyl-1H-imidazol-5-yl)methyl]-1,3,4,5-tetrahydro-1-methyl-2H-1,4-benzodiazepin-2-one] the figure was 208 °C; with `Cn1cncc1C(O)(c1ccc(Cl)cc1)c1ccc2c(c1)C(c1cccc(Cl)c1)OCC(=S)N2` (stereo not drawn) [Example B7, 5-(3-chlorophenyl)-7-[(4-chlorophenyl)hydroxy(1-methyl-1H-imidazol-5-yl)methyl]-1,5-dihydro-4,1-benzoxazepine-2(3H)-thione], over 300 °C.

The values above are taken from US7153958B2, “Farnesyl transferase inhibiting benzoheterocyclic derivatives” (Janssen Pharmaceutica N.V., priority 2000, dated 2006).
